Reference: patent US20230219904A1 (SYNGENTA CROP PROTECTION AG, priority 2020, published 2023)

Key:
Assay type in all cases: in vivo
Conditions in all cases: evaluated after 13 days
[1] = system: Amaranthus retoflexus (AMARE); test: Post-emergence herbicidal glasshouse test (Table B1)
Outline: (§1)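 Damage is rated 13 days after treatment on a 1–5 scale (5 = 80–100%). Application, usually 500 g/h in acetone/water (50:50) with 0.5% Tween 20, is made one day post-sowing for pre-emergence or eight days for post-emergence; glasshouse at 24/16 °C, 14 h light, 65% humidity.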

[2] = system: Setaria faberi (SETFA); test: as above
Outline: as §1

[3] = system: Ipomoea hederacea (IPOHE); test: as above
Outline: as §1

[4] = system: Echinochloa crus-galh (ECHCG); test: as above
Outline: as §1

[5] = system: Abutilon theophrasti (ABUTH); test: as above
Outline: as §1

[6] = system: Amaranthus retoflexus (AMARE); test: Pre-emergence herbicidal glasshouse test (Table B1)
Outline: as §1

[7] = system: Setaria faberi (SETFA); test: as above
Outline: as §1

[8] = system: Ipomoea hederacea (IPOHE); test: as above
Outline: as §1

[9] = system: Echinochloa crus-galh (ECHCG); test: as above
Outline: as §1

[10] = system: Abutilon theophrasti (ABUTH); test: as above
Outline: as §1

Row | Compound | POST Application AMARE, percentage damage on five-point scale ([1]; applied at 500 g/h) | POST Application SETFA, percentage damage on five-point scale ([2]; applied at 500 g/h) | POST Application IPOHE, percentage damage on five-point scale ([3]; applied at 500 g/h) | POST Application ECHCG, percentage damage on five-point scale ([4]; applied at 500 g/h) | POST Application ABUTH, percentage damage on five-point scale ([5]; applied at 500 g/h) | PRE Application AMARE, percentage damage on five-point scale ([6]; applied at 500 g/h) | PRE Application SETFA, percentage damage on five-point scale ([7]; applied at 500 g/h) | PRE Application IPOHE, percentage damage on five-point scale ([8]; applied) | PRE Application ECHCG, percentage damage on five-point scale ([9]; applied at 500 g/h) | PRE Application ABUTH, percentage damage on five-point scale ([10]; applied at 500 g/h) | POST Application AMARE, percentage damage on five-point scale ([1]; applied at 125 g/ha) | POST Application SETFA, percentage damage on five-point scale ([2]; applied at 125 g/ha) | POST Application IPOHE, percentage damage on five-point scale ([3]; applied at 125 g/ha) | POST Application ECHCG, percentage damage on five-point scale ([4]; applied at 125 g/ha) | POST Application ABUTH, percentage damage on five-point scale ([5]; applied at 125 g/ha) | PRE Application AMARE, percentage damage on five-point scale ([6]; applied at 125 g/ha) | PRE Application SETFA, percentage damage on five-point scale ([7]; applied at 125 g/ha) | PRE Application IPOHE, percentage damage on five-point scale ([8]; applied at 125 g/ha) | PRE Application ECHCG, percentage damage on five-point scale ([9]; applied at 125 g/ha) | PRE Application ABUTH, percentage damage on five-point scale ([10]; applied at 125 g/ha)
1 | Cn1nnnc1NC(=O)c1ccc(OC(F)(F)F)c(NC(=O)C(C)(C)C)c1Cl [Compound 1.107] | 5 (5=80-100%) | 5 (5=80-100%) | 5 (5=80-100%) | 5 (5=80-100%) | 5 (5=80-100%) | 5 (5=80-100%) | 5 (5=80-100%) | 4 (4=60-79%) | 5 (5=80-100%) | 5 (5=80-100%) | – | – | – | – | – | – | – | – | – | –
2 | Cn1nnnc1NC(=O)c1ccc(OC(F)F)c(NC(=O)c2ccccn2)c1Cl [Compound 1.108] | – | – | – | – | – | – | – | – | – | – | 5 (5=80-100%) | 4 (4=60-79%) | 4 (4=60-79%) | 5 (5=80-100%) | 4 (4=60-79%) | 5 (5=80-100%) | 3 (3=40-59%) | 2 (2=20-39%) | 2 (2=20-39%) | 4 (4=60-79%)
3 | CCn1nnnc1NC(=O)c1ccc(OC(F)(F)F)c(NC(=O)C2CCC2)c1Cl [Compound 1.111] | 5 (5=80-100%) | 1 (1=0-19%) | 5 (5=80-100%) | 5 (5=80-100%) | 5 (5=80-100%) | 5 (5=80-100%) | 1 (1=0-19%) | 1 (1=0-19%) | 4 (4=60-79%) | 4 (4=60-79%) | – | – | – | – | – | – | – | – | – | –
4 | Cn1nnnc1NC(=O)c1ccc(OC(F)(F)F)c(NC(=O)C2CCC2)c1Cl [Compound 1.112] | 5 (5=80-100%) | 5 (5=80-100%) | 5 (5=80-100%) | 5 (5=80-100%) | 5 (5=80-100%) | 5 (5=80-100%) | 1 (1=0-19%) | 1 (1=0-19%) | 5 (5=80-100%) | 4 (4=60-79%) | – | – | – | – | – | – | – | – | – | –
5 | CCn1nnnc1NC(=O)c1ccc(OC(F)(F)F)c(NC(=O)CCOC)c1Cl [Compound 1.113] | 5 (5=80-100%) | 5 (5=80-100%) | 5 (5=80-100%) | 5 (5=80-100%) | 5 (5=80-100%) | 5 (5=80-100%) | 2 (2=20-39%) | 1 (1=0-19%) | 5 (5=80-100%) | 5 (5=80-100%) | – | – | – | – | – | – | – | – | – | –
6 | CCCC(=O)Nc1c(OC(F)(F)F)ccc(C(=O)Nc2nnnn2CC)c1Cl [Compound 1.114] | 5 (5=80-100%) | 5 (5=80-100%) | 5 (5=80-100%) | 5 (5=80-100%) | 5 (5=80-100%) | 5 (5=80-100%) | 2 (2=20-39%) | 3 (3=40-59%) | 5 (5=80-100%) | 5 (5=80-100%) | – | – | – | – | – | – | – | – | – | –
7 | Cc1nnc(NC(=O)c2ccc(OC(F)(F)F)c(NC(=O)C3CC3)c2Cl)o1 [Compound 1.115] | – | – | – | – | – | – | – | – | – | – | 3 (3=40-59%) | 4 (4=60-79%) | 4 (4=60-79%) | 4 (4=60-79%) | 4 (4=60-79%) | 4 (4=60-79%) | 4 (4=60-79%) | 2 (2=20-39%) | 5 (5=80-100%) | 4 (4=60-79%)
8 | CCn1nnnc1NC(=O)c1ccc(OC(F)(F)F)c(NC(=O)COC)c1Cl [Compound 1.116] | 5 (5=80-100%) | 5 (5=80-100%) | 5 (5=80-100%) | 5 (5=80-100%) | 5 (5=80-100%) | 5 (5=80-100%) | 1 (1=0-19%) | 1 (1=0-19%) | 3 (3=40-59%) | 5 (5=80-100%) | – | – | – | – | – | – | – | – | – | –
9 | CCn1nnnc1NC(=O)c1ccc(OC(F)(F)F)c(NC(=O)C2CC2)c1Cl [Compound 1.117] | 5 (5=80-100%) | 5 (5=80-100%) | 5 (5=80-100%) | 5 (5=80-100%) | 5 (5=80-100%) | 5 (5=80-100%) | 4 (4=60-79%) | 4 (4=60-79%) | 5 (5=80-100%) | 5 (5=80-100%) | – | – | – | – | – | – | – | – | – | –
10 | CCn1nnnc1NC(=O)c1ccc(OC(F)(F)F)c(NC(=O)C(C)C)c1Cl [Compound 1.118] | – | – | – | – | – | – | – | – | – | – | 4 (4=60-79%) | 4 (4=60-79%) | 4 (4=60-79%) | 4 (4=60-79%) | 4 (4=60-79%) | 4 (4=60-79%) | 4 (4=60-79%) | 2 (2=20-39%) | 5 (5=80-100%) | 4 (4=60-79%)
11 | CCC(=O)Nc1c(OC(F)(F)F)ccc(C(=O)Nc2nnnn2CC)c1Cl [Compound 1.119] | 5 (5=80-100%) | 5 (5=80-100%) | 5 (5=80-100%) | 5 (5=80-100%) | 5 (5=80-100%) | 5 (5=80-100%) | 2 (2=20-39%) | 4 (4=60-79%) | 5 (5=80-100%) | 5 (5=80-100%) | – | – | – | – | – | – | – | – | – | –
12 | COCCC(=O)Nc1c(OC(F)(F)F)ccc(C(=O)Nc2nnnn2C)c1Cl [Compound 1.120] | 5 (5=80-100%) | 5 (5=80-100%) | 5 (5=80-100%) | 5 (5=80-100%) | 5 (5=80-100%) | 5 (5=80-100%) | 1 (1=0-19%) | 1 (1=0-19%) | 5 (5=80-100%) | 4 (4=60-79%) | – | – | – | – | – | – | – | – | – | –
13 | CCCC(=O)Nc1c(OC(F)(F)F)ccc(C(=O)Nc2nnnn2C)c1Cl [Compound 1.121] | 5 (5=80-100%) | 5 (5=80-100%) | 5 (5=80-100%) | 5 (5=80-100%) | 5 (5=80-100%) | 5 (5=80-100%) | 1 (1=0-19%) | 2 (2=20-39%) | 5 (5=80-100%) | 4 (4=60-79%) | – | – | – | – | – | – | – | – | – | –
